Columns and labels:
Type in all cases: biochemical
BTK-WT = molecular target: T1, BTK-WT (Homo sapiens, UniProt Q06187); assay: Btk in vitro inhibitory activity (one of Method A TR-FRET, Method B electrophoretic mobility shift, Method C radiometric filter binding); details: D-compounds panel data; read-out: IC50 BTK-WT
T1 construct: purified from insect cells as a full-length construct containing an N-terminal 6X-His tag; His6 (N); made in house; host or cells: insect cells (baculovirus Sf21 in Method B)

EGFR = EGFR (Homo sapiens, UniProt P00533); assay: Inhibition of a panel of kinases, in vitro HotSpot kinase assay: EGFR; details: D-compounds panel data; 1 μM ATP
Experimental: (§1) The degree of inhibition of a panel of kinases is determined using the in vitro HotSpot kinase assay (purified enzymes, ^33P-ATP, an appropriate substrate and 1 μM ATP).

TEC = molecular target: T2, TEC (Homo sapiens, UniProt P42680); assay: Inhibition of a panel of kinases, in vitro HotSpot kinase assay: TEC; details: D-compounds panel data; 1 μM ATP
T2 sequence (P42680 1-631): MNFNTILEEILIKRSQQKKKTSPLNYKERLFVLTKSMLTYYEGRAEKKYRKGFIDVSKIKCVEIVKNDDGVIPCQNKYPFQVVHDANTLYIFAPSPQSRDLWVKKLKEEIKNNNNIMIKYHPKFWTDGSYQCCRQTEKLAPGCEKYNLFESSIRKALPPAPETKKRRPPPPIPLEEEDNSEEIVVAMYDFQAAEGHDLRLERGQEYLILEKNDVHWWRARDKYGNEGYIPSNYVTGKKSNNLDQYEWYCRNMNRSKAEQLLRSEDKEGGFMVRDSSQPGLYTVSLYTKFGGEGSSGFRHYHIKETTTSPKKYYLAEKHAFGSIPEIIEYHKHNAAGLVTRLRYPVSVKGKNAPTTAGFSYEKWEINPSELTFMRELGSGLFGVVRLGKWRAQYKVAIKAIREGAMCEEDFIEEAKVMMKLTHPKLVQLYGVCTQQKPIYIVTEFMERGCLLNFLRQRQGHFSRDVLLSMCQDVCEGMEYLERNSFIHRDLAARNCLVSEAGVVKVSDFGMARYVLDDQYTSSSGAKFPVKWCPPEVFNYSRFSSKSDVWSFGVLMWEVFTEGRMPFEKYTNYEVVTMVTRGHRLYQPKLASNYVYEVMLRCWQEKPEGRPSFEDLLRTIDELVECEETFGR
Experimental: as §1

LCK = LCK (Homo sapiens, UniProt P06239); assay: Inhibition of a panel of kinases, in vitro HotSpot kinase assay: LCK; details: D-compounds panel data; 1 μM ATP; read-out: IC50 LCK
SRC = SRC (Homo sapiens, UniProt P12931); assay: Inhibition of a panel of kinases, in vitro HotSpot kinase assay: SRC; details: D-compounds panel data; 1 μM ATP
Experimental: as §1

Chain of EGFR (P00533 25-1210): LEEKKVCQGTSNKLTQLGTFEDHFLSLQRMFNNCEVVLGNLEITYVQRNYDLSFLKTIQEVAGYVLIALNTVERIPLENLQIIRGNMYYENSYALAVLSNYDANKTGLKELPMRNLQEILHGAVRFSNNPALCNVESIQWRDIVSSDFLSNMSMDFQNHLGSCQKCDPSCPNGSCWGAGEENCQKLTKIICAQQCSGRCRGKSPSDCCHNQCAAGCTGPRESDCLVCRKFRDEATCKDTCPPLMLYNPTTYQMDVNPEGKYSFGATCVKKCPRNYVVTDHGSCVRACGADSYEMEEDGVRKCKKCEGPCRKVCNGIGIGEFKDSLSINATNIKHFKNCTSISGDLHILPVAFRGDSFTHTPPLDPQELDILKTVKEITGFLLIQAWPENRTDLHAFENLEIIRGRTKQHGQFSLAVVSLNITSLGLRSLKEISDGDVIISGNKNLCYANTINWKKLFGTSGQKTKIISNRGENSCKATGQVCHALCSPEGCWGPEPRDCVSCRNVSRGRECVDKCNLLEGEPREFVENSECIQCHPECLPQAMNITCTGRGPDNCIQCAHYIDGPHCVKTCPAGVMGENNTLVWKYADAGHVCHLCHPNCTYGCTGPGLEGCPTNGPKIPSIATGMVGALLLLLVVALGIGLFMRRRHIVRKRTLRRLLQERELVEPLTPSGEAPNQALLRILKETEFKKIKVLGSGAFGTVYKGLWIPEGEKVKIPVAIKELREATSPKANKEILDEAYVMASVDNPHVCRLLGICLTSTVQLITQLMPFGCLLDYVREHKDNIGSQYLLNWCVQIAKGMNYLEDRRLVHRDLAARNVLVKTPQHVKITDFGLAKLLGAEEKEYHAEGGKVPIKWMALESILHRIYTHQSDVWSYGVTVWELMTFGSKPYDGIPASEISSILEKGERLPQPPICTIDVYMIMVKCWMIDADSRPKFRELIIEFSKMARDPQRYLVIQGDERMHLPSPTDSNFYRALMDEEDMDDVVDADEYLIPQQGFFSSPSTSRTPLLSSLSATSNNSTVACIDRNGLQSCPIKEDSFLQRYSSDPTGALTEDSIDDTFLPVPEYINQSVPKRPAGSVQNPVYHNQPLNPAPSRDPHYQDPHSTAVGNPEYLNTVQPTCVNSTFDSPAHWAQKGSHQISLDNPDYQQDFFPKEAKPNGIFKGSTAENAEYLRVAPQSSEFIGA
Chain of LCK (P06239 whole entry): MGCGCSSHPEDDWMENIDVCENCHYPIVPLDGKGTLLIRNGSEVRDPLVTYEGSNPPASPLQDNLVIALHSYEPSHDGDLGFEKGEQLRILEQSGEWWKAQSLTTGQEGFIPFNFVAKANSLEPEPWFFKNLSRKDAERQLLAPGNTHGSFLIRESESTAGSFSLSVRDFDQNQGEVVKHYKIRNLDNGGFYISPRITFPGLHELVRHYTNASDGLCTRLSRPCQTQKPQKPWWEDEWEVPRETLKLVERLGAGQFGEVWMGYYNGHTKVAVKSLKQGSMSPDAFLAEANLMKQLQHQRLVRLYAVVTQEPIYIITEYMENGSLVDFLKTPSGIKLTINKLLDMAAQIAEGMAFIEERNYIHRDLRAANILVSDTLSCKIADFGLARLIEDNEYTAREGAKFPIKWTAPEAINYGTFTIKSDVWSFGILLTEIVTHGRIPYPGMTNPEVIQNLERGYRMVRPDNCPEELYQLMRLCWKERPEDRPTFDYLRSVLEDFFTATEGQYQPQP
Chain of SRC (P12931 whole entry): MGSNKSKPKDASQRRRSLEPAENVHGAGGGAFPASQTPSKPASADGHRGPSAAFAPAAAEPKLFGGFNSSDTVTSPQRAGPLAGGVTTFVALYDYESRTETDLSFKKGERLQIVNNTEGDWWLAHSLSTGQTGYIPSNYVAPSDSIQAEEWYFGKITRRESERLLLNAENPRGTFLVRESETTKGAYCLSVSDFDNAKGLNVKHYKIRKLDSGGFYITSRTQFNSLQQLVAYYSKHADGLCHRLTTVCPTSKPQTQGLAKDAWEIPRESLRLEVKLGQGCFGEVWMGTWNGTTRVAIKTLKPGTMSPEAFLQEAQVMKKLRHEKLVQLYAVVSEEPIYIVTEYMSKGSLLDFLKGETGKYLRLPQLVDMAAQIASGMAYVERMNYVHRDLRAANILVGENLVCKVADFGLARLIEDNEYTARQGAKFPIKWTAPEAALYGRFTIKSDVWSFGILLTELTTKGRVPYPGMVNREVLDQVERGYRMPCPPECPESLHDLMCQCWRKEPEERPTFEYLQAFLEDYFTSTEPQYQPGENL
T1 sequence (Q06187 whole entry): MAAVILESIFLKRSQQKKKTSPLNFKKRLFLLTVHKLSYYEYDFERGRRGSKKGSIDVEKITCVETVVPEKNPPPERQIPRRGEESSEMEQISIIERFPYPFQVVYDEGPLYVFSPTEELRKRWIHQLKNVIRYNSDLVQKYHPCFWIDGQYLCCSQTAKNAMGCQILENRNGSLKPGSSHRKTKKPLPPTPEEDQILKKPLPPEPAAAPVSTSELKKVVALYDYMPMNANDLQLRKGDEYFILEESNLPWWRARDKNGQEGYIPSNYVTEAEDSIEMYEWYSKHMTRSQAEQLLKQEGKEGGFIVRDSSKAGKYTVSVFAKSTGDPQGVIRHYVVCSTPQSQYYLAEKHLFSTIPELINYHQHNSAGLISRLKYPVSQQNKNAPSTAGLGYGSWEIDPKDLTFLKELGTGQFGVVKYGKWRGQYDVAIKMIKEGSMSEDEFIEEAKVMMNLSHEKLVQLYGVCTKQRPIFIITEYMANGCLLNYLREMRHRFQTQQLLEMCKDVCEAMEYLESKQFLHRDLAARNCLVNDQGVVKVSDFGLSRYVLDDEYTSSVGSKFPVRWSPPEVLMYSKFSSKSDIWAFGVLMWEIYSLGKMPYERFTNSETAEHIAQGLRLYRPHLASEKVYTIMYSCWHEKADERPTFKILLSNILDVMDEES

## C[C@@H]1[C@H](N2Cc3cc(C4CC4)ccc3C2=O)CCCN1c1cnc(C(N)=O)c(Nc2cnn(C)c2)n1 [Example D-36, 5-[(2R,3R)-3-(5-cyclopropyl-1-oxo-2,3-dihydro-1H-isoindol-2-yl)-2-methylpiperidin-1-yl]-3-[(1-methyl-1H-pyrazol-4-yl)amino]pyrazine-2-carboxamide]
BTK-WT
  IC50: ≤ 10 nM
EGFR
  IC50: 100 to 1000 nM
TEC
  IC50: ≤ 10 nM
LCK
  IC50: 100 to 1000 nM
SRC
  IC50: 100 to 1000 nM

## C[C@@H]1[C@H](N2CCN(C)C2=O)CCCN1c1cnc(C(N)=O)c(Nc2ccc(C3(C)CCN(C4CC4)CC3)cc2)n1 [Example D-38, 3-{[4-(1-cyclopropyl-4-methylpiperidin-4-yl)phenyl]amino}-5-[(2R,3R)-2-methyl-3-(3-methyl-2-oxoimidazolidin-1-yl)piperidin-1-yl]pyrazine-2-carboxamide]
BTK-WT
  IC50: ≤ 10 nM
EGFR
  IC50: 100 to 1000 nM
TEC
  IC50: 10 to 100 nM
LCK
  IC50: 10 to 100 nM
SRC
  IC50: 10 to 100 nM

## Cn1cc(Nc2nc(N3CCC[C@@H](NC(=O)c4ccc(C(C)(C)O)cc4)C3)nnc2C(N)=O)cn1 [Example D-39, 3-[(3R)-3-[4-(2-hydroxypropan-2-yl)benzamido]piperidin-1-yl]-5-[(1-methyl-1H-pyrazol-4-yl)amino]-1,2,4-triazine-6-carboxamide]
BTK-WT
  IC50: ≤ 10 nM
EGFR
  IC50: > 10000 nM
TEC
  IC50: 10 to 100 nM
LCK
  IC50: 100 to 1000 nM
SRC
  IC50: 100 to 1000 nM

## C[C@@H]1[C@H](NC(=O)c2ccc(C(C)(C)O)nc2)CCCN1c1cnc(C(N)=O)c(Nc2cnn(C)c2)n1 [Example D-40, 5-[(2R,3R)-3-[6-(2-hydroxypropan-2-yl)pyridine-3-amido]-2-methylpiperidin-1-yl]-3-[(1-methyl-1H-pyrazol-4-yl)amino]pyrazine-2-carboxamide]
BTK-WT
  IC50: ≤ 10 nM
EGFR
  IC50: 100 to 1000 nM
TEC
  IC50: ≤ 10 nM
LCK
  IC50: 10 to 100 nM
SRC
  IC50: 10 to 100 nM

## C[C@@H]1[C@H](NC(=O)c2ccc(C(C)(C)O)nc2)CCCN1c1nnc(C(N)=O)c(Nc2cnn(C)c2)n1 [Example D-41, 3-[(2R,3R)-3-[6-(2-hydroxypropan-2-yl)pyridine-3-amido]-2-methylpiperidin-1-yl]-5-[(1-methyl-1H-pyrazol-4-yl)amino]-1,2,4-triazine-6-carboxamide]
BTK-WT
  IC50: ≤ 10 nM
EGFR
  IC50: 1000 to 10000 nM
TEC
  IC50: 10 to 100 nM
LCK
  IC50: 10 to 100 nM
SRC
  IC50: 10 to 100 nM

## C[C@@H]1[C@H](NC(=O)c2ccc(C3CC3)cc2)CCCN1c1cnc(C(N)=O)c(Nc2ccc(OC(F)(F)F)cc2)n1 [Example D-42, 5-[(2R,3R)-3-(4-cyclopropylbenzamido)-2-methylpiperidin-1-yl]-3-{[4-(trifluoromethoxy)phenyl]amino}pyrazine-2-carboxamide]
BTK-WT
  IC50: 100 to 1000 nM
EGFR
  IC50: > 10000 nM
TEC
  IC50: 100 to 1000 nM
LCK
  IC50: > 10000 nM
SRC
  IC50: > 10000 nM

## Cn1cc(Nc2nc(N3CCC[C@@H]4[C@H]3CCN4C(=O)c3ccc(C4CC4)cc3)cnc2C(N)=O)cn1 [Example D-44, 5-[(3aR,7aR)-1-(4-cyclopropylbenzoyl)-octahydro-1H-pyrrolo[3,2-b]pyridin-4-yl]-3-[(1-methyl-1H-pyrazol-4-yl)amino]pyrazine-2-carboxamide]
BTK-WT
  IC50: 10 to 100 nM
EGFR
  IC50: 100 to 1000 nM
TEC
  IC50: 100 to 1000 nM
LCK
  IC50: 100 to 1000 nM
SRC
  IC50: 1000 to 10000 nM

## Cn1cc(Nc2nc(N3CCC[C@H]4[C@@H]3CCN4C(=O)c3ccc(C4CC4)cc3)cnc2C(N)=O)cn1 [Example D-45, 5-[(3aS,7aS)-1-(4-cyclopropylbenzoyl)-octahydro-1H-pyrrolo[3,2-b]pyridin-4-yl]-3-[(1-methyl-1H-pyrazol-4-yl)amino]pyrazine-2-carboxamide]
BTK-WT
  IC50: 10 to 100 nM
EGFR
  IC50: > 10000 nM
TEC
  IC50: 100 to 1000 nM
LCK
  IC50: 100 to 1000 nM
SRC
  IC50: 1000 to 10000 nM

## Cn1cc(Nc2nc(N3CCC[C@@H]4[C@H]3CCCN4C(=O)c3ccc(C4CC4)cc3)cnc2C(N)=O)cn1 [Example D-46, 5-I[(4aR,8aR)-5-(4-cyclopropylbenzoyl)-decahydro-1,5-naphthyridin-1-yl]-3-[(1-methyl-1H-pyrazol-4-yl)amino]pyrazine-2-carboxamide]
BTK-WT
  IC50: 10 to 100 nM
EGFR
  IC50: 100 to 1000 nM
TEC
  IC50: 10 to 100 nM
LCK
  IC50: 100 to 1000 nM
SRC
  IC50: 100 to 1000 nM

## Cn1cc(Nc2nc(N3CCC[C@H]4[C@@H]3CCCN4C(=O)c3ccc(C4CC4)cc3)cnc2C(N)=O)cn1 [Example D-47, 5-[(4aS,8aS)-5-(4-cyclopropylbenzoyl)-decahydro-1,5-naphthyridin-1-yl]-3-[(1-methyl-1H-pyrazol-4-yl)amino]pyrazine-2-carboxamide]
BTK-WT
  IC50: 1000 to 10000 nM
EGFR
  IC50: > 10000 nM
TEC
  IC50: 1000 to 10000 nM
LCK
  IC50: > 10000 nM
SRC
  IC50: 1000 to 10000 nM

## C[C@@H]1[C@H](NC(=O)c2ccc(C3CC3)nc2)CCCN1c1cnc(C(N)=O)c(Nc2ccc(OC3CCC(F)(F)CC3)cc2)n1 [Example D-48, 5-[(2R,3R)-3-(6-cyclopropylpyridine-3-amido)-2-methylpiperidin-1-yl]-3-({4-[(4,4-difluorocyclohexyl)oxy]phenyl}amino)pyrazine-2-carboxamide]
BTK-WT
  IC50: 10 to 100 nM
EGFR
  IC50: > 10000 nM
TEC
  IC50: 10 to 100 nM
LCK
  IC50: > 10000 nM
SRC
  IC50: 100 to 1000 nM

## C[C@@H]1[C@H](NC(=O)c2ccc(C(C)(C)N)cc2)CCCN1c1cnc(C(N)=O)c(Nc2cnn(C)c2)n1 [Example D-51, 5-[(2R,3R)-3-[4-(2-aminopropan-2-yl)benzamido]-2-methylpiperidin-1-yl]-3-[(1-methyl-1H-pyrazol-4-yl)amino]pyrazine-2-carboxamide]
BTK-WT
  IC50: ≤ 10 nM
EGFR
  IC50: 100 to 1000 nM
TEC
  IC50: ≤ 10 nM
LCK
  IC50: 10 to 100 nM
SRC
  IC50: ≤ 10 nM

## C[C@@H]1[C@H](NC(=O)N(C)C)CCCN1c1cnc(C(N)=O)c(Nc2ccc(N3CCN(C)CC3)cc2F)n1 [Example D-52, 5-[(2R,3R)-3-[(dimethylcarbamoyl)amino]-2-methylpiperidin-1-yl]-3-{[2-fluoro-4-(4-methylpiperazin-1-yl)phenyl]amino}pyrazine-2-carboxamide]
BTK-WT
  IC50: 10 to 100 nM
EGFR
  IC50: 1000 to 10000 nM
TEC
  IC50: 100 to 1000 nM
LCK
  IC50: 1000 to 10000 nM
SRC
  IC50: 100 to 1000 nM

## C[C@@H]1[C@H](NC(=O)N(C)C)CCCN1c1cnc(C(N)=O)c(Nc2cn[nH]c2)n1 [Example D-53, 5-[(2R,3R)-3-[(dimethylcarbamoyl)amino]-2-methylpiperidin-1-yl]-3-[(1H-pyrazol-4-yl)amino]pyrazine-2-carboxamide]
BTK-WT
  IC50: 10 to 100 nM
EGFR
  IC50: 1000 to 10000 nM
TEC
  IC50: 10 to 100 nM
LCK
  IC50: 100 to 1000 nM
SRC
  IC50: 100 to 1000 nM

## C[C@@H]1[C@H](NC(=O)c2ccc3c(c2)C(C)(C)CO3)CCCN1c1cnc(C(N)=O)c(Nc2cnn(C)c2)n1 [Example D-55, 5-[(2R,3R)-3-(3,3-dimethyl-2,3-dihydro-1-benzofuran-5-amido)-2-methylpiperidin-1-yl]-3-[(1-methyl-1H-pyrazol-4-yl)amino]pyrazine-2-carboxamide]
BTK-WT
  IC50: ≤ 10 nM
EGFR
  IC50: 1000 to 10000 nM
TEC
  IC50: ≤ 10 nM
LCK
  IC50: 10 to 100 nM
SRC
  IC50: 10 to 100 nM

## CC1COc2cc(C(=O)N[C@@H]3CCCN(c4cnc(C(N)=O)c(Nc5cnn(C)c5)n4)[C@@H]3C)ccc2C1 (stereo partly drawn) [Example D-56, 3-[(1-methyl-1H-pyrazol-4-yl)amino]-5-[(2R,3R)-2-methyl-3-(3-methyl-3,4-dihydro-2H-1-benzopyran-7-amido)piperidin-1-yl]pyrazine-2-carboxamide]
BTK-WT
  IC50: ≤ 10 nM
EGFR
  IC50: 100 to 1000 nM
TEC
  IC50: ≤ 10 nM
LCK
  IC50: 10 to 100 nM
SRC
  IC50: 10 to 100 nM

## C[C@@H]1[C@H](NC(=O)c2cnn(C(C)(C)C)c2)CCCN1c1cnc(C(N)=O)c(Nc2cnn(C)c2)n1 [Example D-57, 5-[(2R,3R)-3-(1-tert-butyl-1H-pyrazole-4-amido)-2-methylpiperidin-1-yl]-3-[(1-methyl-1H-pyrazol-4-yl)amino]pyrazine-2-carboxamide]
BTK-WT
  IC50: ≤ 10 nM
EGFR
  IC50: 1000 to 10000 nM
TEC
  IC50: 10 to 100 nM
LCK
  IC50: 100 to 1000 nM
SRC
  IC50: 10 to 100 nM

## CN(C)C(=O)N[C@@H]1CCCN(c2cnc(C(N)=O)c(Nc3ccc(C4(C)CCN(C5CCCC5)CC4)cc3)n2)[C@@H]1CO [Example D-58, 3-{[4-(1-cyclopentyl-4-methylpiperidin-4-yl)phenyl]amino}-5-[(2S,3R)-3-[(dimethylcarbamoyl)amino]-2-(hydroxymethyl)piperidin-1-yl]pyrazine-2-carboxamide]
BTK-WT
  IC50: ≤ 10 nM
EGFR
  IC50: 100 to 1000 nM
TEC
  IC50: 100 to 1000 nM
LCK
  IC50: 100 to 1000 nM
SRC
  IC50: 100 to 1000 nM
